Source: patent US20070219238A1 (priority 2004, published 2007)
Like-named read-outs stand apart in the source and are kept apart here.

Test system: Phytophthora infestans
Format: in vivo
Conditions: individual active compound, potted tomato plants, protective, evaluated after 6 days

| SMILES | Efficacy in % of the untreated control (50 ppm in the spray liquor) [%] | Efficacy in % of the untreated control (100 ppm in the spray liquor) [%] |
| --- | --- | --- |
| [Cu+2].[OH-].[OH-] [II-3, copper hydroxide] | 11 | 22 |
| CC1CCN(c2c(-c3c(F)cc(F)cc3F)c(Cl)nc3ncnn23)CC1 [I, 5-chloro-7-(4-methylpiperidin-1-yl)-6-(2,4,6-trifluorophenyl)[1,2,4]triazolo [1,5-a]pyrimidine] | 0 |  |
| [Cl-].[Cu+2].[Cu+2].[OH-].[OH-].[OH-] [II-1, copper oxychloride] | 0 | 22 |
| CC1CCN(c2c(-c3c(F)cccc3Cl)c(Cl)nc3ncnn23)CC1 [comparative compound A] | 0 |  |
| O=C([O-])[O-].[Cu+2].[Cu+2].[OH-].[OH-] [II-2, (basic) copper carbonate] | 0 | 11 |
| C[C@H](Nc1c(-c2c(F)cc(F)cc2F)c(Cl)nc2ncnn12)C(F)(F)F [comparative compound B] | 0 |  |
